Laboratory results published in publication PMC9885530, “Identification of Natural Products Inhibiting SARS-CoV-2 by Targeting Viral Proteases: A Combined in Silico and in Vitro Approach” (Journal of Natural Products, 2023).
Several values for one entry are separate records, joined by “and”; a condition that tells them apart may be missing. Identical values can stand only once. Like-named read-outs stand apart in the source and are kept apart here.

Columns and labels:
SARS-CoV-2 PLpro [1] = target: T1, SARS-CoV-2 PLpro (Severe acute respiratory syndrome coronavirus 2, UniProt P0DTD1); assay: PL^pro fluorogenic peptide cleavage assay (substrate Z-RLRGG-AMC); assay type: biochemical; parameters: papain-like protease (PL^pro; domain of nsp3); His; purchased BPS Biosciences BPS-100735-1; settings: for inhibition at 20 µM: read-out: SARS-CoV-2 PL^pro enzyme inhibition (%) 20 μM; for inhibition at 100 µM: read-out: SARS-CoV-2 PL^pro enzyme inhibition (%) 100 μM
SARS-CoV-2 PLpro [2] = target: T1, SARS-CoV-2 PLpro; assay: biochemical; parameters: papain-like protease (PL^pro; domain of nsp3); purchased Anaspec (Fremont, USA) AS-72263; settings: for inhibition at 20 µM: read-out: SARS-CoV-2 PLpro inhibition % enzyme inhibition (20 µM)
SARS-CoV-2 M^pro = SARS-CoV-2 M^pro (Severe acute respiratory syndrome coronavirus 2, UniProt P0DTD1); assay: biochemical; assay type: biochemical; settings: for inhibition at 20 µM: read-out: SARS-CoV-2 M^pro enzyme inhibition (%) 20 μM; for inhibition at 100 µM: 100 μM compound, read-out: SARS-CoV-2 M^pro enzyme inhibition (%) 100 μM
SARS-CoV-2 [3] = assay: Antiviral assay in Caco-2 cells; assay type: cell-based; settings: Severe acute respiratory syndrome coronavirus 2, Caco-2, read-out: Anti SARS-CoV-2 activity Caco-2 IC50 (µM)
[4] = Cytotoxicity in Calu-3 cells; settings: human
SARS-CoV-2 [5] = assay: Antiviral assay in Calu-3 cells (spike staining); assay type: cell-based
[6] = Cytotoxicity in Caco-2 cells; settings: human
M^pro = M^pro (Severe acute respiratory syndrome coronavirus 2, UniProt P0DTD1); assay type: binding; settings: 2 μM protein, 50 μM ligand
in vitro = settings: human
[7] = 20 μM compound, buffer with 5 mM DTT, for values marked a the relative standard deviation of 6% applies
[8] = Severe acute respiratory syndrome coronavirus 2, Calu-3, 48 h, read-out: Anti-SARS-CoV-2 activity IC50 (μM)
[9] = read-out: SARS-CoV-2 M^pro IC50, buffer with 5 mM DTT
[10] = Severe acute respiratory syndrome coronavirus 2, Calu-3 cells, MOI 0.01, 48 h postinfection, read-out: Anti-SARS-CoV-2 activity IC50

| SMILES | inhibition at 20 µM (SARS-CoV-2 PLpro [1]) [%] | inhibition at 100 µM (SARS-CoV-2 PLpro [1]) [%] | inhibition at 20 µM (SARS-CoV-2 PLpro [2]) [%] | inhibition at 20 µM (SARS-CoV-2 M^pro; [7]) [%] | inhibition at 100 µM (SARS-CoV-2 M^pro; buffer with 5 mM DTT) [%] | also measured |
| --- | --- | --- | --- | --- | --- | --- |
| COc1cc(CNC(=O)CCCC/C=C/C(C)C)ccc1O [Compound 31, trans-capsaicin] | 5.6 ± 9.7 | 5.3 ± 0.1 | 32.4 ± 13.7 |  |  |  |
| O=C(CCc1ccccc1)C[C@H]1C[C@H](c2ccccc2)c2c(cc(/C=C/c3ccccc3)oc2=O)O1 [Compound 17, katsumadain A] |  |  |  | 5 | 47.7 ± 2.8 |  |
| O=C(/C=C/c1ccc(O)c(O)c1)O[C@@H](C(=O)O)[C@@H](OC(=O)/C=C/c1ccc(O)c(O)c1)C(=O)O [Compound 18, chicoric acid] |  |  |  | 0.7 | 11.5 ± 0.6 |  |
| O=C(/C=C/c1ccc(O)c(O)c1)OC1CC(OC(=O)/C=C/c2ccc(O)c(O)c2)(C(=O)O)CC(O)C1O (stereo not drawn) [Compound 19, cynarine] |  |  |  |  | 9.8 ± 13.3 |  |
| C=CCc1ccc(O)c(-c2cc(CC=C)ccc2O)c1 [Compound 36, magnolol] | 4.3 ± 6.6 |  | 58.2 ± 11.5 |  |  | IC50 (SARS-CoV-2 [3]): 17.7 µM; CC50 [4]: > 20 µM; IC50 (SARS-CoV-2 [5]; [8]): 26.8 µM; antiviral activity against SARS-CoV-2 (in words) (SARS-CoV-2 [5]; two different cell lines (Caco-2, Calu-3)): moderately acting antiviral compounds; CC50 [6]: 47.3 µM |
| COCCN1C(=O)C(O)=C(C(=O)c2ccc(OC)c(C)c2)C1c1ccc(O)cc1 (stereo not drawn) [Compound 39] | 10 ± 5.4 | 42 ± 1.3 | 26 ± 34.7 |  |  |  |
| COc1ccc(C(=O)COc2ccc3c(c2)O/C(=C\c2cc(OC)ccc2OC)C3=O)cc1 [Compound 43] | 10 ± 5.4 | 14.3 ± 3.4 | 13.5 ± 25.5 |  |  |  |
| O=C(CCCN1C(=O)c2ccccc2N2C(=O)c3ccccc3C12)NCCc1cnc[nH]1 (stereo not drawn) [Compound 28] |  |  |  | 14.1 ± 5.1 | 59.7 ± 1 |  |
| C=C(C)[C@H](CC=C(C)C)Cc1c(O)cc(OC)c2c1O[C@H](c1ccc(O)cc1O)CC2=O [Compound 21, kurarinone] |  |  |  | 30.2 | 99.2 ± 2.5 |  |
| CC1=C[C@H](c2c(O)ccc([C@@H]3CC(=O)c4c(O)cc(O)cc4O3)c2O)[C@@H](C(=O)c2ccc(O)cc2O)[C@H](c2ccc(O)cc2O)C1 [Compound 16, kuwanon L] |  |  |  | 70.4 | 97.6 ± 2.5 | STD signals (M^pro): exhibited STD signals; CC50 [4]: 97.7 µM; IC50 (SARS-CoV-2 M^pro; read-out: SARS-CoV-2 M^pro IC50): 5.25 µM and 5.3 µM |
| CC(C)=CCc1c(-c2ccc(O)cc2O)oc2c3c(cc(O)c2c1=O)OC(C)(C)C=C3 [Compound 23, morusin] |  |  |  |  |  | CC50 (in vitro): 25.2 µM; IC50 (SARS-CoV-2 M^pro; [9]): 33.5 µM; IC50 (SARS-CoV-2 [5]; [10]): 24.9 µM |
| COc1ccc2c(C)c(CC(=O)Nc3c(C)cccc3C(C)C)c(=O)oc2c1OC [Compound 45] | 9 ± 4.3 | 2.6 ± 0.1 | -2.6 ± 36.1 |  |  |  |
| CC(C)=CCc1c(-c2ccc(O)c3c2OC(C)(C)C=C3)oc2cc(O)cc(O)c2c1=O [Compound 22, kuwanon A] |  |  |  | 45.5 ± 7.1 | 79.2 ± 2.4 | CC50 (in vitro): 47.7 µM; IC50 (SARS-CoV-2 M^pro; [9]): 35.2 µM; IC50 (SARS-CoV-2 [5]; [10]): 35.6 µM |
| CC(C)(O)CCc1c(-c2ccc(O)cc2O)oc2c3c(cc(O)c2c1=O)OC(C)(C)C=C3 [Compound 24, morusinol] |  |  |  | 23.1 ± 2.8 | 71.2 ± 1.9 |  |
| COc1ccc(CNC(=O)c2cn(CCC(C)C)c(=O)c3ccccc23)cc1OC [Compound 48] | 8.2 ± 2.3 | 0.3 ± 0.5 | 32 ± 4.2 |  |  |  |
| COc1ccc(C(=O)N(CCN(Cc2ccccc2)C(=O)c2ccc(OC)cc2)Cc2ccccc2)cc1 [Compound 27] |  |  |  | 4.8 ± 4 | 28.2 ± 8.3 |  |
| COc1cc2c(cc1OC)/C(=C/C(=O)c1ccc(CSC)cc1)NCC2 [Compound 41] | 9.6 ± 5.8 | 14.6 ± 13.1 |  |  |  |  |

| SMILES | inhibition at 20 µM (SARS-CoV-2 PLpro [1]) [%] | inhibition at 100 µM (SARS-CoV-2 PLpro [1]) [%] | inhibition at 20 µM (SARS-CoV-2 PLpro [2]) [%] | inhibition at 20 µM (SARS-CoV-2 M^pro; [7]) [%] | inhibition at 100 µM (SARS-CoV-2 M^pro; buffer with 5 mM DTT) [%] | also measured |
| --- | --- | --- | --- | --- | --- | --- |
| CC(C)=CCc1cc(-c2coc3cc(O)ccc3c2=O)ccc1O [Compound 20, neobavaisoflavone] |  |  |  |  |  | inhibition at 20 µM (SARS-CoV-2 M^pro): 18% |
| CCC(CC)COC(=O)[C@H](C)N[P@](=O)(OC[C@H]1O[C@@](C#N)(c2ccc3c(N)ncnn23)[C@H](O)[C@@H]1O)Oc1ccccc1 [Compound 1, remdesivir, reference compound] |  |  |  |  |  | CC50 [4]: > 0.1 µM; IC50 (SARS-CoV-2 [5]; [10]): 0.00125 µM |
| COc1ccc(CNC(=O)c2ccc(Cn3c(=O)c(C)nc4ccccc43)cc2)cc1 [Compound 46] | 12.7 ± 6.9 | 14 ± 3.4 |  |  |  |  |
| COc1cc(CC(CO)Oc2ccc(CCCO)cc2OC)ccc1O (stereo not drawn) [Compound 47] | 8.8 ± 5.6 | 0.5 ± 0.8 | -55.8 ± 32.4 |  |  |  |
| CN1[C@@H](CC(=O)c2ccccc2)CCC[C@H]1C[C@H](O)c1ccccc1 [Compound 32, lobelin] | 3.7 ± 2.6 |  | 26.6 ± 11 |  |  |  |
| CC(C)=CCC/C(C)=C/Cc1c(O)ccc([C@@H]2CC(=O)c3c(O)cc(O)cc3O2)c1O [Compound 11, sanggenol A] |  |  |  | 31.9 | 98.3 ± 2.4 |  |
| Oc1ccc([C@@H]2c3c(O)cc(O)cc3[C@@H]3c4c(O)cc(O)cc4[C@H]2[C@H]3c2ccc(O)cc2)cc1 [Compound 25, ampelopsin F] |  |  |  | 18.9 ± 2.2 | 37.5 ± 0.8 |  |
| O=C(CC(c1ccccc1)c1ccccc1)NCCCc1ccccc1 [Compound 40] | 1.6 ± 8.8 | 5 ± 2.6 | 41.5 ± 16.5 |  |  |  |
| COc1ccc(S(=O)(=O)NCc2ccc(C(=O)NCc3ccccc3)cc2)cc1 [Compound 44] | 6.4 ± 4.2 | 1.5 ± 1.2 | 18.5 ± 16.6 |  |  |  |
| COc1cc(C2Oc3cc([C@H]4Oc5cc(O)cc(O)c5C(=O)[C@@H]4O)ccc3OC2CO)ccc1O (stereo partly drawn) [Compound 34, silibinin] | 6.5 ± 3.6 |  | 50.3 ± 14.3 |  |  | CC50 (in vitro): > 100 µM; IC50 (SARS-CoV-2 [5]; [8]): > 100 µM |
| COc1cc(O)c(C(=O)/C=C/c2ccccc2)c(O)c1[C@H]1C[C@H](c2ccccc2)Oc2c(OC)c(O)cc(OC)c21 [Compound 26, sarcandrone B] |  |  |  | 1.2 ± 2.5 | 7.5 ± 2.5 |  |
| Cn1cc(CNC(=O)c2cc([N+](=O)[O-])ccc2Cl)cn1 [Compound 38] | 3 ± 0.7 | 6.4 ± 4.6 | 26.1 ± 15.2 |  |  |  |
| Cn1c(=O)c2c(nc(SCC(=O)Nc3ccc4c(c3)OCO4)n2Cc2cccc(Cl)c2)n(C)c1=O [Compound 29] |  |  |  |  | 7.3 ± 10.2 |  |
| CC(C)(O)[C@H](O)COc1c2ccoc2cc2oc(=O)ccc12 [Compound 37, oxypeucedanin hydrate] |  |  | 97.5 ± 14.6 |  |  | CC50 (in vitro): > 100 µM; SARS-CoV-2 PLpro inhibition % enzyme inhibition (20 µM) (SARS-CoV-2 PLpro [2]; 20 µM, commercial Anaspec assay kit): significant enzyme inhibition; IC50 (SARS-CoV-2 [5]; [8]): > 100 µM |
| COc1cc([C@@H]2Oc3c(O)cc([C@H]4Oc5cc(O)cc(O)c5C(=O)[C@@H]4O)cc3[C@H]2CO)ccc1O [Compound 33, silicristin] | 3.4 ± 7.8 | 19.8 ± 2 |  |  |  |  |
| CC(C)=CCC12Oc3cc(O)c([C@@H]4C=C(C)C[C@H](c5ccc(O)cc5O)[C@H]4C(=O)c4ccc(O)cc4O)c(O)c3C(=O)C1(O)Oc1cc(O)ccc12 (stereo partly drawn) [Compound 14, sanggenon D] |  |  |  |  |  | STD signals (M^pro): exhibited STD signals; CC50 [4]: 46.2 µM; IC50 (SARS-CoV-2 M^pro; SARS-CoV-2 M^pro IC50 (μM), buffer with 5 mM DTT): 13.8 µM and 13.9 µM; IC50 (SARS-CoV-2 [5]; [10]): 18.5 µM |
